In general, IC50 refers to the concentration needed to halve the response being measured.

Experimental findings from patent US11957687B2 (REGENERON PHARMACEUTICALS, INC., priority 2019, dated 2024) are described below.

One series addresses HSD17B13 (Homo sapiens (Human), UniProt Q7Z5P4). Description: HSD17B13 enzymatic inhibition assay (150 nM or 50 nM HSD17B13). Format: biochemical.
Series [1] can be described thus: Microsome stability assay, human liver microsomes. Format: in vitro ADME. The settings on record: 1 μM compound, 0.5 mg/mL microsomal protein; for microsomal CLint at 1 h, 1 µM / half-life at 1 h, 1 µM / microsomal CLint at 1 μM / half-life at 1 μM: human, human liver microsomes, pooled, NADPH, 37° C.; for microsomal CLint at 1 h, 1 µM / microsomal CLint at 1 μM: read-out: Microsome Stability Human liver microsomes Cl; for half-life at 1 h, 1 µM / half-life at 1 μM: read-out: Microsome Stability Human liver microsomes T½. On the procedure:
Compounds of the disclosure were screened in microsome stability assays. For the screen, test compounds were incubated at 37° C. with either human liver microsomes (Corning; #452117) or mouse liver microsomes (XenoTech; #M1000), pooled from multiple donors, at 1 μM in the presence of a NADPH regenerating system at 0.5 mg/mL microsomal protein. Positive controls included in the assay were testosterone (3A4 substrate), propafenone (2D6) and diclofenac (2C9). Samples were removed at different time points (0, 5, 10, 20, 30 and 60 minutes) and immediately mixed with cold acetonitrile containing internal standard (IS, 200 ng/mL tolbutamide and 200 ng/mL labetalol). Test compounds incubated with microsomes for 60 minutes without the NADPH regenerating system was also included. A single point for each test condition (n=1) was obtained, and samples were analyzed by LC/MS/MS. Disappearance of the test compound was assessed based on peak area ratios of analyte/IS (no standard curve).
On the technique in general: Liver microsomes are a subcellular fraction often used to study metabolism.

[2] abbreviates: 50 nM HSD17B13, read-out: Inhibition of 50 nM of HSD17B13 IC50.
Setting [3] is: 150 nM HSD17B13, read-out: Inhibition of 150 nM of HSD17B13 IC50.

Structures are written as SMILES. Like-named read-outs stand apart in the source and are kept apart here.

HSD17B13, sequence (Q7Z5P4 other isoform, or with tags, fused parts or gaps): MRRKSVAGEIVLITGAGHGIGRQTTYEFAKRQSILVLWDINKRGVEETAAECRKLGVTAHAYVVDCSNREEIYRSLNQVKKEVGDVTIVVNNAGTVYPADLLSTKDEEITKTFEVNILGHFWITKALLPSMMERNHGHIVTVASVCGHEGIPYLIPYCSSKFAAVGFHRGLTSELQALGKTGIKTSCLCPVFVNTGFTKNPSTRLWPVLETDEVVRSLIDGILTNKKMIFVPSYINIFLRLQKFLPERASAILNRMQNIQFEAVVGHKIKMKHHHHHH

For `Cc1ccc(C(NC(=O)c2ccc(C(F)(F)F)[nH]c2=O)c2ccccc2)cc1C` (centres unmarked) [Compound 2A, N-((3,4-dimethylphenyl)(phenyl)methyl)-2-oxo-6-(trifluoromethyl)-1,2-dihydropyridine-3-carboxamide], at HSD17B13 (setting [2]), the IC50 was determined as 280 nM. Also, the IC50 at HSD17B13 (setting [3]) came out at 1570 nM. Also, in series [1], the “Microsome Stability Human liver microsomes % Remaining @60 min” value was found to be 0.10%; the microsomal CLint at 1 h, 1 µM was 515 µL/min/mg; the half-life at 1 h, 1 µM worked out at 2.7 min.
As to `O=C(NC(c1ccccc1)c1ccc2c(c1)OCO2)c1ccc(C(F)(F)F)[nH]c1=O` (centres unmarked) [Compound 3, N-(benzo[d][1,3]dioxol-5-yl(phenyl)methyl)-2-oxo-6-(trifluoromethyl)-1,2-dihydropyridine-3-carboxamide], on HSD17B13 (setting [3]), the IC50 came to 1310 nM. For the same molecule, in series [1], the “Microsome Stability Human liver microsomes % Remaining @60 min” value amounted to 1.00%; the microsomal CLint at 1 h, 1 µM is 217 µL/min/mg; the half-life at 1 h, 1 µM was 6.39 min.
For `O=C(NC(c1ccccc1)c1cccc(C(F)(F)F)c1)c1ccc(C(F)(F)F)[nH]c1=O` (centres unmarked) [Compound 7, 2-oxo-N-(phenyl(3-(trifluoromethyl)phenyl)methyl)-6-(trifluoromethyl)-1,2-dihydropyridine-3-carboxamide], the IC50 at HSD17B13 (setting [2]) was 3090 nM. In series [1], the “Microsome Stability Human liver microsomes % Remaining @60 min” value is listed as 101.00%, the microsomal CLint at 1 μM is below 9.6 µL/min/mg and the half-life at 1 μM was above 145 min.
For `CS(=O)(=O)Nc1ccc(C(NC(=O)c2ccc(C(F)(F)F)[nH]c2=O)c2ccccc2)cc1` (centres unmarked) [Compound 7A, N-((4-(methylsulfonamido)phenyl)(phenyl)methyl)-2-oxo-6-(trifluoromethyl)-1,2-dihydropyridine-3-carboxamide] the same measures were 1100 nM, 93.90%, below 9.6 µL/min/mg and above 145 min.
Regarding `CC(C)Cc1ccc(C(NC(=O)c2ccc(C(F)(F)F)[nH]c2=O)c2ccccc2)cc1` (centres unmarked) [Compound 13, N-((4-isobutylphenyl)(phenyl)methyl)-2-oxo-6-(trifluoromethyl)-1,2-dihydropyridine-3-carboxamide], on HSD17B13 (setting [2]), the IC50 came to 940 nM. In addition, in series [1], the “Microsome Stability Human liver microsomes % Remaining @60 min” value was found to be 1.44%; the microsomal CLint at 1 h, 1 µM was found to be 138 µL/min/mg; the half-life at 1 h, 1 µM was found to be 10.1 min.
As for `O=C(NC(c1ccccc1)c1ccc(Oc2ccccc2)cc1)c1ccc(C(F)(F)F)[nH]c1=O` (centres unmarked) [Compound 16, N-((4-phenoxyphenyl)(phenyl)methyl)-2-oxo-6-(trifluoromethyl)-1,2-dihydropyridine-3-carboxamide], on HSD17B13 (setting [2]), the IC50 came to 970 nM. Besides, in series [1], the “Microsome Stability Human liver microsomes % Remaining @60 min” value was found to be 23.30%, the microsomal CLint at 1 μM was 45.2 µL/min/mg and the half-life at 1 μM stood at 30.7 min.
As for `O=C(NC(c1ccccc1)c1cccc(O)c1)c1ccc(C(F)(F)F)[nH]c1=O` (centres unmarked) [Compound 18, N-((3-hydroxyphenyl)(phenyl)methyl)-2-oxo-6-(trifluoromethyl)-1,2-dihydropyridine-3-carboxamide], at HSD17B13 (setting [2]), the IC50 amounted to 2480 nM. For the same molecule, in series [1], the “Microsome Stability Human liver microsomes % Remaining @60 min” value is recorded as 36.60%; the microsomal CLint at 1 h, 1 µM turned out to be 33 µL/min/mg; the half-life at 1 h, 1 µM was 42 min.
Turning to `O=C(NC(c1ccccc1)c1ccccc1O)c1ccc(C(F)(F)F)[nH]c1=O` (centres unmarked) [Compound 35, N-((2-hydroxyphenyl)(phenyl)methyl)-2-oxo-6-(trifluoromethyl)-1,2-dihydropyridine-3-carboxamide], the IC50 on HSD17B13 (setting [3]) worked out at 2780 nM. In series [1], the “Microsome Stability Human liver microsomes % Remaining @60 min” value turned out to be 14.90%; the microsomal CLint at 1 h, 1 µM was 63.4 µL/min/mg; the half-life at 1 h, 1 µM was 21.9 min.
For `C=CCc1cccc(C(NC(=O)c2ccc(C(F)(F)F)[nH]c2=O)c2ccccc2)c1` (centres unmarked) [Compound 539, N-((3-allylphenyl)(phenyl)methyl)-2-oxo-6-(trifluoromethyl)-1,2-dihydropyridine-3-carboxamide], the IC50 at HSD17B13 (setting [2]) was determined as 740 nM.
As to `CSc1cc(C)ccc1C(NC(=O)c1ccc(C(F)(F)F)[nH]c1=O)c1ccccc1` (centres unmarked) [Compound 540, N-((4-methyl-2-(methylthio)phenyl)(phenyl)methyl)-2-oxo-6-(trifluoromethyl)-1,2-dihydropyridine-3-carboxamide], the IC50 on HSD17B13 (setting [2]) came to 1130 nM.
The same measure, in the same setting: as for `Cc1ccc2c(c1)O[C@@H]1CCCC[C@H]1[C@H]2NC(=O)c1ccc(C(F)(F)F)[nH]c1=O` [Compound 541, N-((4aR,9R,9aS)-6-methyl-2,3,4,4a,9,9a-hexahydro-1H-xanthen-9-yl)-2-oxo-6-(trifluoromethyl)-1,2-dihydropyridine-3-carboxamide], the figure is 60 nM.
Still for that read-out and setting: as for `CCCC1=C(NC(=O)c2ccc(C(F)(F)F)[nH]c2=O)c2cc(C)ccc2C1=O` [Compound 542, N-(5-methyl-1-oxo-2-propyl-1H-inden-3-yl)-2-oxo-6-(trifluoromethyl)-1,2-dihydropyridine-3-carboxamide], the figure is 4670 nM; as for `CCCC1=C(NC(=O)c2ccc(C(F)(F)F)[nH]c2=O)c2cc(C)ccc2C1O` (centres unmarked) [Compound 544, N-(1-hydroxy-5-methyl-2-propyl-1H-inden-3-yl)-2-oxo-6-(trifluoromethyl)-1,2-dihydropyridine-3-carboxamide], 1150 nM.
For `Cc1ccc2c(c1)N(C(=O)OC(C)(C)C)CCC2NC(=O)c1ccc(C(F)(F)F)[nH]c1=O` (centres unmarked) [Compound 546, tert-butyl 7-methyl-4-(2-oxo-6-(trifluoromethyl)-1,2-dihydropyridine-3-carboxamido)-3,4-dihydroquinoline-1(2H)-carboxylate], the IC50 at HSD17B13 (setting [2]) is above 10000 nM.
Same read-out and setting: the result for `C=Cc1cccc2c1CCCC2NC(=O)c1ccc(C(F)(F)F)[nH]c1=O` (centres unmarked) [Compound 547, 2-oxo-6-(trifluoromethyl)-N-(5-vinyl-1,2,3,4-tetrahydronaphthalen-1-yl)-1,2-dihydropyridine-3-carboxamide] reads 6240 nM; that for `O=C(NC1CCCc2c(/C=C/c3ccccc3)cccc21)c1ccc(C(F)(F)F)[nH]c1=O` (centres unmarked) [Compound 548, (E)-2-oxo-N-(5-styryl-1,2,3,4-tetrahydronaphthalen-1-yl)-6-(trifluoromethyl)-1,2-dihydropyridine-3-carboxamide], 9280 nM.
Still for that read-out and setting: as for `N#Cc1cccc2c1CCCC2NC(=O)c1ccc(C(F)(F)F)[nH]c1=O` (centres unmarked) [Compound 549, N-(5-cyano-1,2,3,4-tetrahydronaphthalen-1-yl)-2-oxo-6-(trifluoromethyl)-1,2-dihydropyridine-3-carboxamide], the figure is 8370 nM; as for `Cc1ccc(C(CC2CCCO2)NC(=O)c2ccc(C(F)(F)F)[nH]c2=O)cc1` (centres unmarked) [Compound 550, 2-oxo-N-(2-(tetrahydrofuran-2-yl)-1-(p-tolyl)ethyl)-6-(trifluoromethyl)-1,2-dihydropyridine-3-carboxamide], 1600 nM; as for `Cc1ccc(C(CC2CCOCC2)NC(=O)c2ccc(C(F)(F)F)[nH]c2=O)cc1` (centres unmarked) [Compound 551, 2-oxo-N-(2-(tetrahydro-2H-pyran-4-yl)-1-(p-tolyl)ethyl)-6-(trifluoromethyl)-1,2-dihydropyridine-3-carboxamide], 2690 nM.
For `CC[C@H](C[C@@H](NC(=O)c1ccc(C(F)(F)F)[nH]c1=O)c1ccc(C)cc1)OC` [Compound 552, N-((1R,3R)-3-methoxy-1-(p-tolyl)pentyl)-2-oxo-6-(trifluoromethyl)-1,2-dihydropyridine-3-carboxamide], the IC50 on HSD17B13 (setting [2]) came to 590 nM.
Still for that read-out and setting: as for `CC[C@@H](C[C@@H](NC(=O)c1ccc(C(F)(F)F)[nH]c1=O)c1ccc(C)cc1)OC` [Compound 553, N-((1R,3S)-3-methoxy-1-(p-tolyl)pentyl)-2-oxo-6-(trifluoromethyl)-1,2-dihydropyridine-3-carboxamide], the figure is 2080 nM; as for `CC[C@@H](O)C[C@@H](NC(=O)c1ccc(C(F)(F)F)[nH]c1=O)c1ccc(C)cc1` [Compound 554, N-((1R,3R)-3-hydroxy-1-(p-tolyl)pentyl)-2-oxo-6-(trifluoromethyl)-1,2-dihydropyridine-3-carboxamide], 2350 nM.
On to `CC[C@H](O)C[C@@H](NC(=O)c1ccc(C(F)(F)F)[nH]c1=O)c1ccc(C)cc1` [Compound 555, N-((1R,3S)-3-hydroxy-1-(p-tolyl)pentyl)-2-oxo-6-(trifluoromethyl)-1,2-dihydropyridine-3-carboxamide], for which the IC50 at HSD17B13 (setting [2]) is above 10000 nM.
Take `Cc1ccc(C(CC2CCOC2)NC(=O)c2ccc(C(F)(F)F)[nH]c2=O)cc1` (centres unmarked) [Compound 556, 2-oxo-N-(2-(tetrahydrofuran-3-yl)-1-(p-tolyl)ethyl)-6-(trifluoromethyl)-1,2-dihydropyridine-3-carboxamide]: the IC50 at HSD17B13 (setting [2]) was found to be 2350 nM.
Still for that read-out and setting: as for `Cc1ccc(C(NC(=O)c2ccc(C(F)(F)F)[nH]c2=O)C2CCOCC2)cc1` (centres unmarked) [Compound 558, 2-oxo-N-((tetrahydro-2H-pyran-4-yl)(p-tolyl)methyl)-6-(trifluoromethyl)-1,2-dihydropyridine-3-carboxamide], the figure is 4570 nM.
